Data reported in ChEMBL document CHEMBL3507680, “University of Dundee, Gates Library screen for HepG2 cell viability”.

test: Human HepG2 cell viability assay in 384 well format; assay type: toxicity, cell-based; parameters: dose 125 nL, time 70.5 hour; cytotoxicity at 70.5 h: concentration not given beside the values; details: HepG2 cells, read-out: Inhibition

Row | Compound | cytotoxicity at 70.5 h
1 | CN(C)CC(=O)N1CCN(CC(O)c2ccc(F)cc2)CC1 (stereo unspecified) | -1.76%
2 | C=C(C)CN1CCC(C(=O)c2cc(F)ccc2F)CC1 | 0.664%
3 | CC(C)c1nc(C2CCCN(C(=O)CCn3ccccc3=O)C2)no1 (stereo unspecified) | 22.5%
4 | Cc1nc(C2CCCN2CC(=O)N2CCc3ccccc32)no1 (stereo unspecified) | 21.3%
5 | CCc1noc(CNCCn2cc(C)cn2)n1 | -3.69%
6 | CCOc1ccccc1OC1CCN(C(=O)c2[nH]nc(C)c2Br)CC1 | 0.076%
7 | CCOc1ccccc1N1CCN(C(=O)c2cc[nH]n2)CC1 | 0.935%
8 | Cc1cc(C)c(CNC(=O)NCc2ccc(F)c(C)c2)c(=O)[nH]1 | -0.902%
9 | Cc1cc(C)c(CNC(=O)NCc2ccncc2)c(=O)[nH]1 | -0.477%
10 | O=C(c1ccccc1)N1CCN(CC(O)c2ccc(F)cc2)CC1 (stereo unspecified) | -11%
11 | O=C(Cc1ccc(F)cc1)N1CCN(CC(O)c2ccccc2)CC1 (stereo unspecified) | -4.51%
12 | NC(=O)C1CCN(C(=O)NCc2cccnc2OCC(F)(F)F)C1 (stereo unspecified) | -1.73%
13 | c1ccc(-c2nc(CNCCn3cccn3)cs2)nc1 | 19.2%
14 | CCc1ccc(C(=O)N2CCN(CC(O)c3ccccc3)CC2)o1 (stereo unspecified) | 1.67%
15 | Cc1nc(C2CCCN(C(=O)CCn3ccccc3=O)C2)no1 (stereo unspecified) | -3.24%
16 | CCc1nc(C2CCCN2CCC(=O)N2CCc3ccccc32)no1 (stereo unspecified) | 20.5%
17 | Cc1nc(C2CCCN(C(=O)c3cc4c(s3)CCCC4)C2)no1 (stereo unspecified) | 5.35%
18 | CCc1nc2n(n1)CC(NCC(=O)Nc1oc(C)c(C)c1C#N)CC2 (stereo unspecified) | 7.08%
19 | CN(Cc1ccco1)C(=O)c1cccc(N2CCCC2=O)c1 | -8.03%
20 | CC(Cn1ccnc1)NC(=O)NCCc1ccc(Cl)s1 (stereo unspecified) | -4.32%
21 | Cn1cc(C2CCCN2C(=O)COCCc2ccccc2)cn1 (stereo unspecified) | -8.67%
22 | CCc1nc2n(n1)CC(NCC(=O)Nc1cc(C)nn1C)CC2 (stereo unspecified) | -6.14%
23 | CC(C)c1noc(CCCC(=O)N2CCN(Cc3ccccn3)CC2)n1 | -11.6%
24 | CC(C)c1noc(CCCC(=O)N2CCN(Cc3ccsc3)CC2)n1 | -6.21%

Row | Compound | cytotoxicity at 70.5 h
25 | Cc1nc(CCNC(=O)NC(C)Cn2cccn2)cs1 (stereo unspecified) | -12.8%
26 | Cn1cc(NS(=O)(=O)c2ccc(C(F)(F)F)cc2)ccc1=O | -9.18%
27 | CCCc1ccc(S(=O)(=O)Nc2ccc(=O)n(C)c2)cc1 | 22.8%
28 | Cn1ncc2c(=O)[nH]c(CN3CCCC3c3cccc(F)c3)nc21 (stereo unspecified) | -7.63%
29 | Cn1ncc2c(=O)[nH]c(CN3CCc4sccc4C3)nc21 | 13.1%
30 | CCc1nc(CN2CCN(C(=O)C3(C#N)CCCC3)CC2)cs1 | -2.5%
31 | CCn1cnnc1C1CCN(C(=O)c2cnc(C)s2)CC1 | -12.3%
32 | Cn1cc(C2CCCN2C(=O)CCCOc2ccc(F)cc2)cn1 (stereo unspecified) | 15.6%
33 | Cn1cc(C2CCCN2C(=O)COCCOc2ccccc2)cn1 (stereo unspecified) | -4.67%
34 | CN(C)c1cc2c(nn1)CCN(C(=O)C1Cc3ccccc3O1)C2 (stereo unspecified) | 8.33%
35 | COc1ncccc1CNC(=O)N(Cc1ccc(F)cc1F)C1CC1 | -12.4%
36 | CCc1ccc(C(=O)N2CCC(c3nncn3CC)CC2)s1 | -7.92%
37 | Cn1cnnc1C1CCN(C(=O)c2cc3c(s2)CCCC3)CC1 | 14.6%
38 | CN(Cc1nccn1C)C1CCCN(Cc2noc(C3CC3)n2)C1 (stereo unspecified) | 15.8%
39 | CCc1cnc(CN(C)C2CCN(CC(=O)Nc3cc(C)on3)C2)o1 (stereo unspecified) | 11.1%
40 | CCC(O)CN1CCN(C(=O)c2ccc3c(c2)COC3)CC1 (stereo unspecified) | 14.3%
41 | OC(COCc1ccccc1)CN1CCC(c2ccn[nH]2)CC1 (stereo unspecified) | 19.6%
42 | CN(CC(=O)N1CCCCC1Cn1cccn1)C1CC1 (stereo unspecified) | 4.49%
43 | Cn1ccnc1CN1CCN(Cc2noc(C3CC3)n2)CC1 | -12.6%
44 | CC(C(=O)NCCOc1ccc(F)cc1)n1cncn1 (stereo unspecified) | -14.7%
45 | O=C(NCc1ccccn1)C1=NN(c2ccccc2)C(=O)CN1 | -16.4%
46 | CCCc1noc(CCC(=O)N2CCCC2c2ccc(OC)cc2)n1 (stereo unspecified) | -16.8%
47 | OC(COc1ccc(F)cc1)CN1CCC(c2ccn[nH]2)CC1 (stereo unspecified) | -9.19%
48 | Cc1nc(-c2ccco2)ccc1C(=O)N1CCn2c(C)nnc2C1 | -17.1%

Row | Compound | cytotoxicity at 70.5 h
49 | CCN1CCN(C2CCN(CC(=O)NCC(F)(F)F)CC2)C1=O | -6.43%
50 | Cc1cnn(CCNCC(O)COc2c(Cl)cccc2Cl)c1 (stereo unspecified) | -4.22%
51 | Cc1noc(C)c1C(=O)N1CCCC1c1c(C)nn(C)c1C (stereo unspecified) | -8.88%
52 | Cc1nn(C)c(Cl)c1C1CCCN1Cc1cccc(C(N)=O)c1 (stereo unspecified) | -10.9%
53 | c1coc(-c2noc(CN3CCCCC3Cn3cncn3)n2)c1 (stereo unspecified) | 5.99%
54 | CCn1ncc2c1CCCC2NCc1cc(OC)cc(OC)c1 (stereo unspecified) | -9.39%
55 | CCc1noc(CN2CCN(C(=O)N(CC)CC)CC2)n1 | -10%
56 | CCc1c(C(=O)N2CCN(c3ncccn3)CC2)cnn1C(C)(C)C | -2.98%
57 | Cc1ccc(CNC(=O)Nc2nnc(C)s2)cn1 | -5.53%
58 | CCc1ccc(CNC(=O)N2CCN(Cc3cc(C)no3)CC2)s1 | 19.6%
59 | Cc1cc(CN2CCN(C(=O)NCc3nc(C)cs3)CC2)on1 | -11.7%
60 | O=C(NCCn1ccnc1)c1ccn(-c2cccc(F)c2)n1 | 12.4%
61 | O=C(CCNc1ncccn1)NCCOc1ccc2c(c1)CCC2 | -16.3%
62 | COc1cc(CCC(=O)NCC2CCCN2C)ccc1OCC(F)(F)F (stereo unspecified) | -7.43%
63 | COc1ccc(CN(C)C(=O)NCc2c(C)cc(C)[nH]c2=O)cc1 | -4.65%
64 | CCc1ncncc1C(=O)N1CCN(Cc2c(C)noc2C)CC1 | -11.6%
65 | CCN1CCN(C(=O)CCc2c(C)noc2Cl)CC1 | -13.8%
66 | Cc1nnc2n1CCN(C(=O)c1cc(C)n(-c3ccccn3)c1C)C2 | -14%
67 | Cc1cccc(-n2c(C)cc(C(=O)N3CCn4c(C)nnc4C3)c2C)c1 | -1.57%
68 | Cc1noc(Cl)c1CCC(=O)N1CCC(CC(N)=O)CC1 | -4.77%
69 | CCc1c(C(=O)N2CCN(CC(N)=O)CC2)cnn1C(C)(C)C | -2.02%
70 | Cn1cnc2c1CCN(Cc1nc(COc3ccc(F)cc3)no1)C2 | 10.6%
71 | Cc1nc(C)n(CC2CCCN2CC(=O)Nc2cc(C(C)C)no2)n1 (stereo unspecified) | -13.1%
72 | Cc1nc2n(n1)CC(NCc1cc(Cl)c3c(c1)OCCCO3)CC2 (stereo unspecified) | -6.52%

Row | Compound | cytotoxicity at 70.5 h
73 | CN(Cc1ccco1)C(=O)[C@H]1CSCN1C(=O)OC(C)(C)C | -1.49%
74 | Cc1nn(C)c(C)c1C1CCCN1C(=O)CCc1cscn1 (stereo unspecified) | -6.08%
75 | COc1cc(CNC2CCc3nc(C(C)C)nn3C2)cc2c1OCO2 (stereo unspecified) | -13.1%
76 | CSCC(=O)N1CCCC(n2ccnc2C(C)C)C1 (stereo unspecified) | -7.04%
77 | CC(C)c1nccn1C1CCCN(C(=O)c2cnn(C)c2C2CC2)C1 (stereo unspecified) | 5.54%
78 | CN(CCCOc1ccccc1)C(=O)CN1CCc2cncnc2C1 | 8.28%
79 | O=C(CN1CCc2cncnc2C1)NCCOc1ccccc1 | -5.53%
80 | O=C(CC1CCCO1)NCc1ccccc1Cn1cncn1 (stereo unspecified) | -3.75%
81 | CCN(CC)c1ccc(C(=O)N(C)Cc2c(C)noc2C)cn1 | -3.66%
82 | N#Cc1ccc(CN2CCC(c3ccnn3CCO)CC2)cc1 | -2.2%
83 | Cc1noc(C)c1CNC(=O)c1ccc(NC2CC2)nc1 | 5.69%
84 | CCc1nc(C(=O)N2CCCC2)nn1-c1ccccc1Cl | 10.2%
85 | Cc1nccc(-c2cccc(NCC(=O)N3CCCCCCC3)c2)n1 | 17.3%
86 | Cc1cc(C)n(CC2CN(CCOc3cccc(C#N)c3)CCO2)n1 (stereo unspecified) | 0.061%
87 | Cc1cc(C)c(CNC(=O)NCC(O)c2cccc(F)c2)c(=O)[nH]1 (stereo unspecified) | -3.53%
88 | CCc1ncc(CN(C)C(=O)Nc2cccnc2N2CCCC2)s1 | 0.712%
89 | CC(C)c1nccn1C1CCCN(C(=O)c2cnc[nH]2)C1 (stereo unspecified) | 3.72%
90 | O=C1COc2ccc(C(=O)NS(=O)(=O)c3ccc(F)cc3F)cc2N1 | -0.102%
91 | CC(C)c1n[nH]c(C2CN(C(=O)c3cccc4cn[nH]c34)CCO2)n1 (stereo unspecified) | 3.42%
92 | CC(C)c1n[nH]c(C2CN(C(=O)c3csnn3)CCO2)n1 (stereo unspecified) | -3.07%
93 | CC(OCC1CC1)C(=O)N1CCCN(c2ncccc2C#N)CC1 (stereo unspecified) | 15.5%
94 | COc1ccc(-c2noc(CNC(C)Cn3cccn3)n2)c(OC)c1 (stereo unspecified) | 22.3%
95 | Cn1ccnc1CN1CCCN(C(=O)c2ccc3c(c2)COC3)CC1 | 5.68%
96 | O=C(NCCC1=CCCCC1)NCc1nnc2n1CCC2 | -10.8%

Row | Compound | cytotoxicity at 70.5 h
97 | O=C(NCc1cc[nH]n1)N1CCN(c2ccccc2Cl)CC1 | 6.1%
98 | O=C(NCCN1CCCCC1)c1scnc1Cl | -8.74%
99 | CN(CCc1ccc(F)cc1)Cc1nc2c(cnn2C)c(=O)[nH]1 | 11.7%
100 | CC(C(=O)N1CCCN(c2ncccc2C#N)CC1)n1cccn1 (stereo unspecified) | -9.79%
101 | CN(CC(=O)N1CCCC1c1cnn(C)c1)c1ccc(Cl)cn1 (stereo unspecified) | 3.73%
102 | O=C(NCc1ccc(-c2ccn[nH]2)cc1)N1CCC(N2CCCC2)C1 (stereo unspecified) | -5.88%
103 | Cc1nnc(CN2CCN(CCOc3ccccc3C#N)CC2)n1C | 7.15%
104 | CCc1ncc2c(n1)CN(Cc1nc(-c3ccsc3)oc1C)CC2 | 1.83%
105 | O=C(CCOc1ccccc1)N1CCC(Nc2cccnn2)CC1 | 1.59%
106 | O=C(c1ccsc1)N1CCCC(c2cc(C(F)(F)F)[nH]n2)C1 (stereo unspecified) | 11.1%
107 | O=C(c1ccc(Cl)o1)N1CCCC(c2cc(C(F)(F)F)[nH]n2)C1 (stereo unspecified) | -3.16%
108 | O=C(c1ccc[nH]1)N1CCCC(c2cc(C(F)(F)F)[nH]n2)C1 (stereo unspecified) | -0.878%
109 | CC(C)(C)c1ncc(C(=O)NCCS(N)(=O)=O)s1 | -1.37%
110 | CSc1nccn1-c1cccc(C(=O)NCC2CC2)c1 | 0.766%
111 | O=C(NCc1cc[nH]n1)N1CCCCC(N2CCCC2)C1 (stereo unspecified) | -0.0102%
112 | COc1cc(C)ccc1OCCC(=O)N1CCCC1Cn1cccn1 (stereo unspecified) | -3.24%
113 | Cn1ccnc1CN1CCCN(C(=O)c2ccc(Cl)o2)CC1 | -8.18%
114 | Cc1cc(NC(=O)CN2CCc3cnc(C)nc3C2)on1 | 35.8%
115 | O=C(NCCN1CCCc2ccccc21)c1scnc1Cl | 10.6%
116 | CC(C)c1nn(C)c(N(C)C)c1CNCc1cccc(CN(C)C)c1 | 0.875%
